Holding throughout (assay type): in vivo, mouse
The test system of one assay is KPC tumor vasculature. Nature of the assay: Mean vascular density and vascular-tumor distance (CD31 immunohistochemistry) in KPC tumors. The protocol: Tissues were fixed in 10% formalin solution for 24 hours and transferred to 70% ethanol. Tissues were paraffin embedded, sectioned and rehydrated. For CD31 IHC, sections were unmasked in 10 mM EDTA, pH 8.0 in a pressure cooker. For all other antibodies, sections were unmasked in 10 mM citric acid in a pressure cooker. Endogenous peroxidases were quenched in 3% H2O2/PBS for 20 minutes. Remaining steps were carried out with Vectastain ABC kits appropriate to the species of primary antibody (Vector Labs, Burlingame, Calif.) with the following modification: blocking serum was supplemented with Protein Blocking Agent (Immunotech/BeckmanCoulter, Fullerton, Calif.) diluted 1:50. Antigens were developed with DAB Peroxidase Substrate (Vector Labs). […]
Tissue sections were probed with anti-CD31 antibodies and counterstained with hematoxylin. Mean vascular density (MVD) was determined as the number of CD31 positive blood vessels per 40× field, over three random fields per tumor. The distance separating intratumoral blood vessels and neoplastic cells was determined for twenty randomly chosen blood vessels per tumor. Each intratumoral blood vessels was photographed at 1000× magnification, and the distance to the four nearest tumor cells was measured and the results averaged.

Assay [1] has as its system KPC tumors. Nature of the assay: Histology (H&E) of treated KPC tumors. The note with it: KPC tumors after 8-12 days of treatment.
Assay [2] can be described thus: 19F NMR of fluorinated gemcitabine metabolites in tissue. The note with it: KPC tumors; 10 days of treatment; vs untreated tumors. On the procedure:
Mice were treated with indicated regiments for 12 days. […] Tissues were rapidly dissected and snap frozen in liquid nitrogen. Tissue specimens were maintained at −80° C. until subjected to nucleotide extraction. Samples were homogenized in a Qiagen TissueLyser with a 5 mm ball bearing for 2×6 minutes at 25 KHz, in the presence of 4 volumes of ice-cold acetonitrile (μL acetonitrile=4×[…] of tissue). An equal volume of water was added and then the sample was spun at 14,000 rpm for 10 minutes at 4° C. Supernatant was freeze dried, resuspended in 600 μL of D2O and transferred to a 5 mm standard NMR tube (Wilmad) for ^19F NMR analysis on a Bruker 600 MHZ (14.1T) Avance NMR spectrometer using a QNP probe. Acquisition parameters included a 1D pulse sequence of ^19F observation and inverse-gated ^1H decoupling, spectral sweep width of 177 ppm (100000 Hz), 4096 scans and 1.65 sec of repetition time. Total acquisition time for each sample was about 1 hr 55 min. Trichloro-fluoro-methane was used for ^19F NMR chemical shift calibrations. A broad hump observed in the baseline of ^19F NMR spectra was removed by application of Linear-prediction (LP) back projection to the time domain data by using 2000 (number of LP) coefficients and 128 back-prediction points prior to Fourier transformation and phase correction. […]

For assay [3], the system named is KPC tumors. Nature of the assay: Doxorubicin delivery to treated KPC tumors (doxorubicin fluorescence, laser scanning cytometry). The note with it: KPC tumors after 8-12 days of treatment; doxorubicin 20 mg/kg infused. On the procedure: To assess the functional vasculature, biotin-conjugated Lycopersicon esculentum lectin (B1175-1 mg, Vector Laboratories) was resuspended in 425 μL PBS and mixed with 75 μL of 1 mg/mL Streptavidin-AlexaFluor 633 (S21375, Molecular Probes) (in sterile PBS). Prior to use, the lectin-avidin mixture was centrifuged 14,000 k on a microfuge for 10 minutes to remove any particulate. Fifteen minutes prior to euthanasia, 100 μl (0.4 mg total) of the conjugated lectin was administered as a slow intravenous infusion over 5 minutes, and the hemodynamics monitored closely to ensure that it was tolerated. […]
Mice were perfused with 4% paraformaldehyde in PBS, pH 7.4, while under terminal anesthesia. […] Doxorubicin fluorescence was determined by quantitative imaging cytometry using the iCys Research Imaging Cytometer (CompuCyte, Cambridge, Mass.) with iNovator software (CompuCyte).
A scanning protocol for quantification was configured with two channels. Nuclear DAPI fluorescence was excited by the 405 nm diode laser and detected in the blue ([…]) channel and doxorubicin fluorescence was excited by the argon […] laser and detected in the orange ([…]) channel. The threshold in the DAPI channel was optimised to selectively contour individual cells allowing fluorescence measurement within the primary and peripheral nuclear contours. […]

Another assay relates to KPC pancreatic tumors. The assay can be described thus: Monitoring of KPC pancreatic tumor volume by 3D high resolution ultrasonography. The note with it: gemcitabine 100 mg/kg twice weekly, Compound A 40 ug/kg/day, or both. An excerpt:
For survival studies, mice were enrolled following the detection of 5-10 mm diameter tumor by ultrasound. Tumors were quantified by 3D ultrasound twice weekly until endpoint. High resolution ultrasound (US) imaging of normal and diseased mouse pancreas using the Vevo 770 System with a 35 MHz RMV scanhead (Visual Sonics, Inc.). 3D images were produced using the 3D motor arm to collect serial images at 0.25 mm intervals through the thickness of the tumor. Tumors were outlined on each 2D image and reconstructed to quantify the 3D volume using the integrated Vevo 770 software package.

“Also recorded” adds a separate entry of the source.

As for `CC1=C2C[C@H]3[C@@H](CC[C@@H]4C[C@H](NS(C)(=O)=O)CC[C@@]43C)[C@@H]2CC[C@@]2(C1)O[C@@H]1C[C@H](C)CN[C@H]1[C@H]2C.Cl` [Compound A], the “mean vascular density (MVD)” value with KPC tumor vasculature (KPC tumors after 8-12 days of treatment) is “higher MVD; also recorded: significantly elevated; also recorded: increased MVD”. In the assay on KPC tumor vasculature (KPC tumors, vs control and gemcitabine-treated specimens), the “position of intratumoral blood vessels relative to tumor cells” value is given as “positioned in close proximity to tumor cells”. In addition, the “tumor stroma / histological pattern” value with KPC tumors [1] was “dramatically altered histological patterns; also recorded: loss of cellular and acellular stroma”. Further, the “concentration of gemcitabine metabolites in KPC tumor tissue” value in assay [2] is given as “No difference”. Moreover, the “doxorubicin delivery to tumor tissue (fluorescence per unit area)” value with KPC tumors [3] was “evident but more variable; also recorded: increased content”. Moreover, in the assay on KPC pancreatic tumors, the “objective (ultrasonographic) response, responding mice/treated mice” value is 2/10.

(Values after patent US20120020876A1, “HEDGEHOG PATHWAY INHIBITORS” (priority 2009, published 2012).)
